Activity calls are given as the source filed them. How the calls were made is not given here.
Tested on: CCRIS mutagenicity, Ames/micronucleus/aberration tests
Test: CCRIS mutagenicity studies
[1] = Test System: AMES SALMONELLA TYPHIMURIUM, Strain/Indicator: TA98, Metabolic Activation: NONE, Method: PREINCUBATION
[2] = Test System: AMES SALMONELLA TYPHIMURIUM, Strain/Indicator: TA100, Metabolic Activation: NONE, Method: PREINCUBATION
[3] = Test System: AMES SALMONELLA TYPHIMURIUM, Strain/Indicator: TA1535, Metabolic Activation: NONE, Method: PREINCUBATION
[4] = Test System: AMES SALMONELLA TYPHIMURIUM, Strain/Indicator: TA1537, Metabolic Activation: NONE, Method: PREINCUBATION
[5] = Test System: AMES SALMONELLA TYPHIMURIUM, Strain/Indicator: TA100, Metabolic Activation: NONE, Method: STANDARD PLATE
[6] = Test System: AMES SALMONELLA TYPHIMURIUM, Strain/Indicator: TA98, Metabolic Activation: NONE, Method: STANDARD PLATE

Measured: mutagenic call

c1cc(OCC2CO2)cc(OCC2CO2)c1 (stereo not drawn)
inactive: Test System: AMES SALMONELLA TYPHIMURIUM, Strain/Indicator: TA98, Metabolic Activation: HAMSTER, LIVER, S-9, AROCLOR 1254, Method: PREINCUBATION inactive; negative | [1] inactive; negative | Test System: AMES SALMONELLA TYPHIMURIUM, Strain/Indicator: TA98, Metabolic Activation: RAT, LIVER, S-9, AROCLOR 1254, Method: PREINCUBATION inactive; negative | Test System: AMES SALMONELLA TYPHIMURIUM, Strain/Indicator: TA1537, Metabolic Activation: HAMSTER, LIVER, S-9, AROCLOR 1254, Method: PREINCUBATION inactive; negative | [4] inactive; negative | Test System: AMES SALMONELLA TYPHIMURIUM, Strain/Indicator: TA1537, Metabolic Activation: RAT, LIVER, S-9, AROCLOR 1254, Method: PREINCUBATION inactive; negative | Test System: MOUSE LYMPHOMA, Strain/Indicator: L5178Y (HPRT), Metabolic Activation: NONE, Method: SUSPENSION/PLATE inactive; negative
active: End Point: IN VITRO CHROMOSOMAL ABERRATIONS, Test System: CHO CELLS, Metabolic Activation: NONE active; positive | End Point: IN VITRO CHROMOSOMAL ABERRATIONS, Test System: CHO CELLS, Metabolic Activation: RAT, LIVER, S-9, AROCLOR 1254 active; positive; weak response | Test System: AMES SALMONELLA TYPHIMURIUM, Strain/Indicator: TA100, Metabolic Activation: HAMSTER, LIVER, S-9, AROCLOR 1254, Method: PREINCUBATION active; positive | [2] active; positive | Test System: AMES SALMONELLA TYPHIMURIUM, Strain/Indicator: TA100, Metabolic Activation: RAT, LIVER, S-9, AROCLOR 1254 (10%), Method: PREINCUBATION active; positive | Test System: AMES SALMONELLA TYPHIMURIUM, Strain/Indicator: TA100, Metabolic Activation: RAT, LIVER, S-9, AROCLOR 1254, Method: PREINCUBATION active; positive | Test System: AMES SALMONELLA TYPHIMURIUM, Strain/Indicator: TA1535, Metabolic Activation: HAMSTER, LIVER, S-9, AROCLOR 1254 (10%), Method: PREINCUBATION active; positive | Test System: AMES SALMONELLA TYPHIMURIUM, Strain/Indicator: TA1535, Metabolic Activation: HAMSTER, LIVER, S-9, AROCLOR 1254, Method: PREINCUBATION active; positive | [3] active; positive | Test System: AMES SALMONELLA TYPHIMURIUM, Strain/Indicator: TA1535, Metabolic Activation: RAT, LIVER, S-9, AROCLOR 1254 (10%), Method: PREINCUBATION active; positive | Test System: AMES SALMONELLA TYPHIMURIUM, Strain/Indicator: TA1535, Metabolic Activation: RAT, LIVER, S-9, AROCLOR 1254, Method: PREINCUBATION active; positive | Test System: MOUSE LYMPHOMA, Strain/Indicator: L5178Y (TK+/TK-), Metabolic Activation: NONE, Method: SUSPENSION/PLATE active; positive

O=C1C=CC(=O)C(Cl)=C1
inactive: [1] inactive; negative | Test System: AMES SALMONELLA TYPHIMURIUM, Strain/Indicator: TA98, Metabolic Activation: RAT, LIVER, S-9, PHENOBARBITAL AND 5,6-BENZOFLAVONE, Method: PREINCUBATION inactive; negative | [2] inactive; negative | Test System: AMES SALMONELLA TYPHIMURIUM, Strain/Indicator: TA100, Metabolic Activation: RAT, LIVER, S-9, PHENOBARBITAL AND 5,6-BENZOFLAVONE, Method: PREINCUBATION inactive; negative | Test System: AMES SALMONELLA TYPHIMURIUM, Strain/Indicator: TA102, Metabolic Activation: NONE, Method: PREINCUBATION inactive; negative | Test System: AMES SALMONELLA TYPHIMURIUM, Strain/Indicator: TA102, Metabolic Activation: RAT, LIVER, S-9, PHENOBARBITAL AND 5,6-BENZOFLAVONE, Method: PREINCUBATION inactive; negative | Test System: AMES SALMONELLA TYPHIMURIUM, Strain/Indicator: TA104, Metabolic Activation: NONE, Method: PREINCUBATION inactive; negative | Test System: AMES SALMONELLA TYPHIMURIUM, Strain/Indicator: TA104, Metabolic Activation: RAT, LIVER, S-9, PHENOBARBITAL AND 5,6-BENZOFLAVONE, Method: PREINCUBATION inactive; negative | Test System: AMES SALMONELLA TYPHIMURIUM, Strain/Indicator: TA2637, Metabolic Activation: NONE, Method: PREINCUBATION inactive; negative | Test System: AMES SALMONELLA TYPHIMURIUM, Strain/Indicator: TA2637, Metabolic Activation: RAT, LIVER, S-9, PHENOBARBITAL AND 5,6-BENZOFLAVONE, Method: PREINCUBATION inactive; negative

O=[N+]([O-])c1ccc2snc(Cl)c2c1
active: [5] active; positive

CCN(CCCl)CCCNc1c2ccc(Cl)cc2nc2ccc(OC)nc12
active: [6] active; positive | [5] active; positive | Test System: AMES SALMONELLA TYPHIMURIUM, Strain/Indicator: TA1536, Metabolic Activation: NONE, Method: STANDARD PLATE active; positive | Test System: AMES SALMONELLA TYPHIMURIUM, Strain/Indicator: TA1537, Metabolic Activation: NONE, Method: STANDARD PLATE active; positive | Test System: AMES SALMONELLA TYPHIMURIUM, Strain/Indicator: TA1538, Metabolic Activation: NONE, Method: STANDARD PLATE active; positive
inactive: Test System: AMES SALMONELLA TYPHIMURIUM, Strain/Indicator: TA1535, Metabolic Activation: NONE, Method: STANDARD PLATE inactive; negative

CCN(CC)c1ccc(/C=C/C2=[N+](C)c3ccccc3C2(C)C)cc1
inactive: Test System: Ames Salmonella typhimurium, Strain/Indicator: TA98, Metabolic Activation: None, Method: Preincubation inactive; negative | Test System: Ames Salmonella typhimurium, Strain/Indicator: TA98, Metabolic Activation: Rat, Liver, S-9, Aroclor 1254, Method: Preincubation inactive; negative | Test System: Ames Salmonella typhimurium, Strain/Indicator: TA100, Metabolic Activation: None, Method: Preincubation inactive; negative | Test System: Ames Salmonella typhimurium, Strain/Indicator: TA100, Metabolic Activation: Rat, Liver, S-9, Aroclor 1254, Method: Preincubation inactive; negative | Test System: Ames Salmonella typhimurium, Strain/Indicator: TA102, Metabolic Activation: None, Method: Preincubation inactive; negative | Test System: Ames Salmonella typhimurium, Strain/Indicator: TA102, Metabolic Activation: Rat, Liver, S-9, Aroclor 1254, Method: Preincubation inactive; negative | Test System: Ames Salmonella typhimurium, Strain/Indicator: TA1535, Metabolic Activation: None, Method: Preincubation inactive; negative | Test System: Ames Salmonella typhimurium, Strain/Indicator: TA1535, Metabolic Activation: Rat, Liver, S-9, Aroclor 1254, Method: Preincubation inactive; negative

C[C@H]1C=C(C=O)[C@H](C=O)[C@@H](O)[C@@H]2CC(C)(C)C[C@@H]21
inactive: [6] inactive; negative | [5] inactive; negative | Test System: AMES SALMONELLA TYPHIMURIUM, Strain/Indicator: TA2637, Metabolic Activation: NONE, Method: STANDARD PLATE inactive; negative

CC1=C(Cl)C(=O)OC1O (stereo not drawn)
active: [5] active; positive | Test System: Ames Salmonella typhimurium, Strain/Indicator: TA100, Metabolic Activation: None, Method: Plate incorporation active; positive | Test System: Ames Salmonella typhimurium, Strain/Indicator: TA104, Metabolic Activation: None, Method: Plate incorporation active; positive | Test System: UDS RAT HEPATOCYTES, Strain/Indicator: THYMIDINE INCORPORATION, Metabolic Activation: NONE, Method: AUTORADIOGRAPHY active; positive

O=C(C(Cl)Cl)C(Cl)Cl
active: [6] active; positive | [5] active; positive

C1CCCNCC1
inactive: [1] inactive; negative | Test System: AMES SALMONELLA TYPHIMURIUM, Strain/Indicator: TA98, Metabolic Activation: RAT LIVER S-9, PHENOBARBITAL AND BETA-NAPHTHOFLAVONE, Method: PREINCUBATION inactive; negative | [2] inactive; negative | Test System: AMES SALMONELLA TYPHIMURIUM, Strain/Indicator: TA100, Metabolic Activation: RAT LIVER S-9, PHENOBARBITAL AND BETA-NAPHTHOFLAVONE, Method: PREINCUBATION inactive; negative | [3] inactive; negative | Test System: AMES SALMONELLA TYPHIMURIUM, Strain/Indicator: TA1535, Metabolic Activation: RAT LIVER S-9, PHENOBARBITAL AND BETA-NAPHTHOFLAVONE, Method: PREINCUBATION inactive; negative | [4] inactive; negative | Test System: AMES SALMONELLA TYPHIMURIUM, Strain/Indicator: TA1537, Metabolic Activation: RAT LIVER S-9, PHENOBARBITAL AND BETA-NAPHTHOFLAVONE, Method: PREINCUBATION inactive; negative | Test System: E.COLI, Strain/Indicator: WP2UVRA, Metabolic Activation: NONE, Method: PREINCUBATION inactive; negative | Test System: E.COLI, Strain/Indicator: WP2UVRA, Metabolic Activation: RAT LIVER S-9, PHENOBARBITAL AND BETA-NAPHTHOFLAVONE, Method: PREINCUBATION inactive; negative
